Data on eleven compounds can be found in ChEMBL document CHEMBL1201862, “PubChem BioAssay data set” (2004).

Test in all cases: inhibition of tumour cell growth, NCI panel, 48 h
The test system of experiment [1] is HCT-15.
Experiment [2] deals with SN12C.
Experiment [3] concerns PC-3.
Experiment [4] has as its system SF-268.
Experiment [5] concerns SR.
Experiment [6] concerns Hs-578T.
Experiment [7] concerns K562.
In experiment [8] the test system is LOX IMVI.
Experiment [9] has as its system SK-OV-3.
Experiment [10] has as its system SK-MEL-28.
The subject of experiment [11] is HOP-92.
The subject of experiment [12] is KM12.
Experiment [13] deals with CCRF-CEM.
Experiment [14] concerns NCI-H226.
The test system of experiment [15] is M14.
Experiment [16] concerns HT-29.
Experiment [17] relates to COLO 205.
Experiment [18] deals with SNB-19.
Experiment [19] has as its system A498.
Experiment [20] relates to RXF 393.

SMILES strings stand for the structures.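 In this assay, cells in 96-well plates receive the compound at five concentrations for 48 hours. Endpoints are linearly interpolated between the surrounding concentrations. Abbreviation: GI50, concentration required for 50% inhibition of growth.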 The source made the active and inactive calls. Cut-off read from the data, not from the text of the source: active = GI50 up to about 1.1 µM and inactive = higher.

`CCCC1C2=C(C(=O)OC2=O)C2C(CC)CC3=C(C(=O)OC3=O)C12` (stereo not given): the GI50 in [1] is > 100 µM; in experiment [2], > 100 µM (inactive); in [3] it was > 100 µM (inactive); in [4], > 100 µM (inactive); in experiment [5], > 100 µM (inactive); in experiment [6] it was 18.4 µM (inactive). Moreover, the GI50 in [7], in [8], in experiment [9], in experiment [10], in [11] and in experiment [12] was > 100 µM (inactive) each time. Moreover, the GI50 in experiment [13], in [14], in experiment [15], in experiment [16], in experiment [17] and in experiment [18] was > 100 µM (inactive) throughout. Further, in experiment [19], the GI50 is > 100 µM (inactive).

For the compound `O=C(COC(=O)c1ccccc1)c1ccc(Br)cc1`, the GI50 is 3.35 µM in experiment [1]; 10.4 µM (inactive) in experiment [2]; 16.3 µM (inactive) in experiment [3]; 19.6 µM (inactive) in [4]; 2.15 µM (inactive) in experiment [5]; 14.3 µM (inactive) in experiment [6]. Moreover, the GI50 in experiment [7] was 4.4 µM (inactive); in [8], 3.06 µM (inactive); in [9], 19.1 µM (inactive); in experiment [10], 16.9 µM (inactive); in [11] it was 14.6 µM (inactive); in experiment [12], 15.7 µM (inactive). The GI50 in experiment [13] is 4.04 µM (inactive); in [15], 14.5 µM (inactive); in experiment [16] it was 15.6 µM (inactive); in experiment [20] it was 2.75 µM (inactive); in experiment [17], 13.6 µM (inactive); in experiment [18] it was 16.9 µM (inactive). Also, the GI50 in experiment [19] was 15.8 µM (inactive).

Regarding `CSCCC(NCc1c(O)ccc2ccc(=O)oc12)C(=O)O` (stereo not given), the GI50 in [1] was > 100 µM; in experiment [2] it was > 100 µM (inactive); in experiment [3], > 100 µM (inactive); in [4], > 100 µM (inactive); in experiment [5] it was > 100 µM (inactive); in experiment [6], 4.78 µM (inactive). Besides, the GI50 in experiment [7], in experiment [8], in experiment [9], in [10], in experiment [11] and in experiment [12] was > 100 µM (inactive) in each case. The GI50 in experiment [13], in [14], in experiment [15], in [16], in [20] and in [17] was > 100 µM (inactive) throughout. Besides, the GI50 in experiment [18] is > 100 µM (inactive).

Turning to `O=C1c2ccccc2C(=O)c2sc(Nc3ccccc3C(F)(F)F)nc21`, the GI50 in experiment [1] is 7.29 µM; in [2] it was 32.6 µM (inactive); in experiment [3], 12.2 µM (inactive); in experiment [4], 11 µM (inactive); in [5] it was 4.16 µM (inactive); in experiment [6] it was 11.9 µM (inactive). Moreover, the GI50 in [7] was 3.01 µM (inactive); in experiment [8] it was 25.1 µM (inactive); in [9], 16.7 µM (inactive); in experiment [10], 16.2 µM (inactive); in experiment [11], 10.6 µM (inactive); in experiment [12], 10.2 µM (inactive). Moreover, the GI50 in [13] is 3.79 µM (inactive); in experiment [15], 21.7 µM (inactive); in [20], 20.8 µM (inactive); in experiment [17], 8.89 µM (inactive); in experiment [18] it was 21.5 µM (inactive); in [19], 15.3 µM (inactive).

On to `Cc1cc(-c2nc3c(F)cccc3s2)ccc1N`, for which the GI50 was 84.9 µM in experiment [1]; 28.2 µM (inactive) in experiment [2]; 97.5 µM (inactive) in experiment [3]; 39.9 µM (inactive) in experiment [4]; 48 µM (inactive) in experiment [5]; 98.6 µM (inactive) in experiment [6]. In addition, the GI50 in experiment [7] is 40.3 µM (inactive); in [8], 61.4 µM (inactive); in [9], > 100 µM (inactive); in [10], > 100 µM (inactive); in [11] it was > 100 µM (inactive); in experiment [12], 38.9 µM (inactive). The GI50 in experiment [13] is 3.94 µM (inactive); in experiment [15] it was 97.5 µM (inactive); in [16] it was 44.8 µM (inactive); in [20] it was 41.7 µM (inactive); in experiment [17], 80.5 µM (inactive); in [19] it was 8.2 µM (inactive).

`c1cc2cc3c4c5c(cc6ccc7cc8cc9c%10c8c8c7c6c5c8c5c%10c(c1C9N1CCOCCOCCOCCOCCOCC1)c2c45)C3` (stereo not given): the GI50 in experiment [1] was > 100 µM; in experiment [2], > 100 µM (inactive); in experiment [3], > 100 µM (inactive); in experiment [4], > 100 µM (inactive); in experiment [5], > 100 µM (inactive); in [6], > 100 µM (inactive). In addition, the GI50 in experiment [7], in experiment [8], in experiment [9], in experiment [10], in [11] and in experiment [12] was > 100 µM (inactive) in each case. The GI50 in experiment [13], in experiment [14], in experiment [15], in [16], in [20] and in experiment [17] was > 100 µM (inactive) in each case. Further, the GI50 in experiment [18] is > 100 µM (inactive).

Take `CN(C)CCNC1=Nc2ccccc2C(=O)N2CSCC12` (stereo not given): the GI50 in [1] was > 100 µM; in [2], > 100 µM (inactive); in experiment [3] it was > 100 µM (inactive); in experiment [4], > 100 µM (inactive); in [5] it was > 100 µM (inactive); in experiment [6] it was > 100 µM (inactive). Moreover, the GI50 in [7], in experiment [8], in experiment [9], in experiment [10], in experiment [12] and in experiment [13] was > 100 µM (inactive) throughout. Moreover, the GI50 in [14], in experiment [15], in experiment [16], in [20], in [17] and in experiment [18] was > 100 µM (inactive) in each case. Also, the GI50 in experiment [19] was > 100 µM (inactive).

On to `CCCCCCCC(CC(=O)NC(CO)C(=O)NC(CO)CC(C)C)OC(=O)CC(CCCCCCC)OC(=O)CC(CCCCCCC)OC1OC(C)C(O)C(OC2OC(C)C(OC(C)=O)C(O)C2O)C1O` (stereo not given), for which the GI50 in experiment [2] is 6.49 µM (inactive); in [3], 4.04 µM (inactive); in [4], 8.28 µM (inactive); in experiment [5], 2.55 µM (inactive); in experiment [6] it was 4.22 µM (inactive); in experiment [7], 4.61 µM (inactive). Also, the GI50 in [9] is 16.3 µM (inactive); in [10], 6.64 µM (inactive); in experiment [11], 8.91 µM (inactive); in [12], 3.55 µM (inactive); in experiment [13], 3.7 µM (inactive); in [14] it was 16.6 µM (inactive). Besides, the GI50 in experiment [15] was 3.67 µM (inactive); in experiment [16], 3.41 µM (inactive); in [20], 3.76 µM (inactive); in [17] it was 2.52 µM (inactive); in experiment [18], 5.27 µM (inactive); in experiment [19], 11.3 µM (inactive).

Consider `CC(=O)Oc1cccc2c1C(=O)CCCC2`, for which the GI50 in [1] is > 100 µM; in experiment [2], > 100 µM (inactive); in experiment [3], > 100 µM (inactive); in [4], > 100 µM (inactive); in experiment [5] it was > 100 µM (inactive); in experiment [6] it was > 100 µM (inactive). Moreover, the GI50 in experiment [7], in experiment [8], in experiment [9], in experiment [10], in [12] and in experiment [13] was > 100 µM (inactive) each time. For the same compound, the GI50 in experiment [14], in [15], in [16], in [20], in experiment [17] and in experiment [18] was > 100 µM (inactive) throughout. In addition, in experiment [19], the GI50 is > 100 µM (inactive).

Consider `c1ccc2c(c1)CC1c3[nH]c4ccccc4c3CCN21` (stereo not given), for which the GI50 in experiment [1] was > 10 µM; in [2] it was > 10 µM (inactive); in experiment [3], > 10 µM (inactive); in [4], > 10 µM (inactive); in [5] it was > 10 µM (inactive); in experiment [6], > 10 µM (inactive). Besides, the GI50 in [7], in experiment [8], in [9], in experiment [10], in experiment [11] and in [12] was > 10 µM (inactive) in each case. The GI50 in [13], in [14], in experiment [15], in experiment [16], in [20] and in [17] was > 10 µM (inactive) each time. Besides, in [18], the GI50 was > 10 µM (inactive).

As to `c1ccc2c(c1)c1c(n2CCOCCN2CCOCC2)CCCC1`, the GI50 in experiment [1] was 36.5 µM; in experiment [2] it was > 10 µM (inactive); in experiment [3], 24.7 µM (inactive); in experiment [4] it was 20.7 µM (inactive); in experiment [5], 30.3 µM (inactive); in [6] it was 57 µM (inactive). The GI50 in [7] was 33.6 µM (inactive); in experiment [8] it was 20.2 µM (inactive); in experiment [9] it was 55.2 µM (inactive); in experiment [10] it was 19.5 µM (inactive); in [11], 29.2 µM (inactive); in [12], 31.8 µM (inactive). Also, the GI50 was 21.8 µM (inactive) in experiment [13]; 12.4 µM (inactive) in experiment [15]; 15.6 µM (inactive) in experiment [16]; > 10 µM (inactive) in experiment [17]; > 100 µM (inactive) in experiment [18]; 34.1 µM (inactive) in [19].
